Where two headings read alike, the source gives them in different places.
Tested on: huCRBN mice
Assay type: in vivo
Conditions: for Live fetuses: female, HOM huCRBN (humanized cereblon)
Description: Thalidomide was administered to female HOM huCRBN mice by oral gavage at dose levels of 0 (1.0% [w/v] carboxymethylcellulose [1500-3000 cP] in RO deionized water), 100, 300, or 1000 mg/kg/day once daily on Gestation Day [GD] 6 through 15. On GD 15, blood samples were collected from the submandibular vein of mice assigned to study at 0.5, 1, 3, 6, and 24 hours postdose for bioanalytical and toxicokinetic evaluation. […] Mice were euthanized and examined, and a gross necropsy was performed. The ovaries and uterus were examined for number and distribution of corpora lutea, implantation sites, placentae (size, color, and shape), live and dead fetuses, and early and late resorptions. Fetuses were euthanized by an intraperitoneal injection of sodium pentobarbital (390 mg/mL). Fetuses were weighed and examined for sex and external abnormalities. Late resorptions were examined for external abnormalities and sex to the extent possible. The body weight of each fetus was recorded. Fetuses were individually identified with the study number, litter number and uterine distribution. Approximately one-half of the fetuses in each litter were examined for visceral abnormalities by using an adaptation of the sectioning technique of Wilson. Each fetus was fixed in Bouin's solution; sections were stored in alcohol. The remaining fetuses (approximately one-half of the fetuses in each litter) were examined for skeletal abnormalities after staining with alizarin red S. Following examination, skeletal preparations were retained in glycerin with thymol added as a preservative.

With O=C1CCC(N2C(=O)c3ccccc3C2=O)C(=O)N1 (centres unmarked) [thalidomide] the Maternal survival (female huCRBN mice, 0, 100, 300, or 1000 mg/kg/day, GD 6 through 15) was “All animals survived to scheduled necropsy on GD 18”, the Live fetuses (mouse, in vivo, 100 mg/kg/day) was 9 and the Live fetuses (mouse, in vivo, 300 mg/kg/day) was 7. For the same molecule, the Live fetuses (mouse, in vivo, 1000 mg/kg/day) was 8 and the “Limb defects (fetal skeleton, alizarin red S)” value (mouse, in vivo, 1000 mg/kg) was “limb defects were not observed”.

— patent publication US12590953B2, “Methods for screening cereblon modifying compounds” (CELGENE CORPORATION, priority 2018, dated 2026)
